Data reported in patent US20260184687A1, “DIHYDROINDENE DERIVATIVES AS MALT1 INHIBITORS” (C4X Discovery Limited, priority 2022, published 2026).
Where a name gives a salt, the structure may show the parent alone. Read-outs that look alike come from different tables or passages of the source.

Key:
FL hMALT1 enzyme [1] = molecular target: T1, FL hMALT1 enzyme (Homo sapiens, UniProt Q9UDY8);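 further: Cell-free protease assay: enzyme preincubated with compound 30 min at room temperature, then cleavage of fluorogenic Ac-LVSR-AMC substrate (100 µM) tracked by fluorescence (ex 360/em 460 nm)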
T1 sequence (Q9UDY8 1-824): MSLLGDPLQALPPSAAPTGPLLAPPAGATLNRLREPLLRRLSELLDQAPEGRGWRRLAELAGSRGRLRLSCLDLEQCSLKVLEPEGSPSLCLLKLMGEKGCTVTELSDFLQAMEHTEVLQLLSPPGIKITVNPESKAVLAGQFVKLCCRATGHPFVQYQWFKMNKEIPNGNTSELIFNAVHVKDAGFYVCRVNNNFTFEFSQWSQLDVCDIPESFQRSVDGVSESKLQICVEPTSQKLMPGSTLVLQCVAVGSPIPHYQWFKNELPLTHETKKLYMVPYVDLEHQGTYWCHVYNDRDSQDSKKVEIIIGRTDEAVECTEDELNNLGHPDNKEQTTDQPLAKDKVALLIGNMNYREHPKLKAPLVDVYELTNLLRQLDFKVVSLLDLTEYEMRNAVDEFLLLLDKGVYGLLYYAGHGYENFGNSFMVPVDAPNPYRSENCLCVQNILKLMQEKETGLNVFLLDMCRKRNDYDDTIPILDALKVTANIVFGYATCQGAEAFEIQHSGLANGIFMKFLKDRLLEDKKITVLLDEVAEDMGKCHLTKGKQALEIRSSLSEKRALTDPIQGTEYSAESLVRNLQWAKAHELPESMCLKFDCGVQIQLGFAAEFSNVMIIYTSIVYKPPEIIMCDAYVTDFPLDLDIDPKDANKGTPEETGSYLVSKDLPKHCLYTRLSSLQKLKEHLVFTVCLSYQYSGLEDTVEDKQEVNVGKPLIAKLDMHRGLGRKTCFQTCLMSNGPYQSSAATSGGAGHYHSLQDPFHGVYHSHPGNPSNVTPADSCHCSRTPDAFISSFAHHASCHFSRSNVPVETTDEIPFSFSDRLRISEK

[2] = test system: IL-2 release from stimulated Jurkat cells; assay: Human IL-2 Release Phenotypic Assay (Assay 3); format: cell-based; conditions: Jurkat cells (clone E6-1), 200 ng/mL PMA + 300 ng/mL ionomycin, IL-2 by ELISA
Outline: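 Jurkat E6-1 cells in RPMI1640/10% FBS were seeded at 50 000 cells/well and incubated overnight at 37° C. Half-log compound dilutions (0.5% final DMSO) were added for 30 min, then cells were stimulated with 200 ng/mL PMA + 300 ng/mL ionomycin for 48 h. IC50 came from a 4-parameter non-linear regression fit.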

FL hMALT1 enzyme [3] = molecular target: T1, FL hMALT1 enzyme; assay: biochemical
[4] = molecular target: T2, MALT1-GS-Ub (6-His-hMALT-1 residues 339-715 fused to ubiquitin) (Homo sapiens, UniProt Q9UDY8);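 further: in vitro MALT1 protease assay: enzyme preincubated with compound 30 min at room temperature, then cleavage of fluorogenic Ac-LVSR-AMC substrate (100 µM) followed by fluorescence every 15 min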
Protocol: (§1) MALT1 protease activity was assessed in vitro by measuring the cleavage of a fluorogenic tetrapeptide substrate.
(§2) A protein (MALT1-GS-Ub) comprising 6-His-hMALT-1 (residues 339-715), fused to ubiquitin with an 8×GGS linker, was expressed in E. coli, and purified using chitin resin to remove contaminants followed by affinity chromatography purification and size-exclusion chromatography, according to standard protocols.
(§3) Briefly, MALT1-GS-Ub (300-600 nM) was incubated with substrate (Ac-LVSR-AMC, 100 μM) in reaction buffer comprising 50 mM HEPES (pH7.0), 25 mM KCl, 0.1% (v/v) CHAPS and 1 mM TCEP.
(§4) Test compounds dissolved in DMSO were dispensed into assay plates (384-well, black, shallow ProxiPlates). 7 μl enzyme solution was added and incubated at room temperature for 30 minutes to allow compound binding to occur. 2 μl substrate solution was then added and the fluorescence (excitation 360 nm, emission 460 nm) read every 15 minutes using a suitable plate reader. Final assay DMSO concentration was 1%. […] IC50 values were calculated using GraphPad Prism using a 4-parameter non-linear regression curve fit.

[5] = molecular target: T2, MALT1-GS-Ub (6-His-hMALT-1 residues 339-715 fused to ubiquitin); assay: biochemical
Protocol: as §1, §2, §3, §4

T2 sequence (Q9UDY8 with tags, fused parts or gaps limits assumed): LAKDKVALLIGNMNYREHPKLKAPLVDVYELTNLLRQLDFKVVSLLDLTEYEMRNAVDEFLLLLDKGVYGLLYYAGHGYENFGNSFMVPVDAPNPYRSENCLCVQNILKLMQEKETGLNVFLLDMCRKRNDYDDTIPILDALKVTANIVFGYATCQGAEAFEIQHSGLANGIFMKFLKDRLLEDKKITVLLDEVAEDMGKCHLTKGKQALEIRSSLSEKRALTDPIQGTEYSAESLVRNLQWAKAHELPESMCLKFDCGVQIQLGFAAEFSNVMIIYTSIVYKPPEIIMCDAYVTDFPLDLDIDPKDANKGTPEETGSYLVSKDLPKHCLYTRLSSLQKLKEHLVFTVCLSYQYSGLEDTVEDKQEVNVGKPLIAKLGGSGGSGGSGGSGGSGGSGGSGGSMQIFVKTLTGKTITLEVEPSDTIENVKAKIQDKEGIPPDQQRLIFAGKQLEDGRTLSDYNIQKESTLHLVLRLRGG

Row | SMILES | IC50 (FL hMALT1 enzyme [1]) [µM] | IC50 ([2]; Homo sapiens, Jurkat, 48 h) [µM] | IC50 (FL hMALT1 enzyme [3]) [µM] | IC50 ([2]; 48 hours) [µM] | IC50 [4] [µM] | IC50 [5] [µM]
1 | CC(=O)NCCC(=O)N(C)[C@@H](c1ccc(NC2Cc3ccccc3C2(C)C)cc1)C(F)(F)F (single isomer, unassigned) [Example 25] |  |  | 0.027 | 0.061 | 0.16 | 
2 | CN(C(=O)OC1CNC1)[C@@H](c1ccc(NC2Cc3ccccc3C2(C)C)cc1)C(F)(F)F (stereo partly drawn) [Example 60, Azetidin-3-yl ((1S)-1-(4-((1,1-dimethyl-2,3-dihydro-1H-inden-2-ylamino)phenyl)-2,2,2-trifluoroethyl)(methyl)carbamate Hydrochloride] |  | 1.1 | 0.053 |  |  | 0.21
3 | CNC(=O)N1CC(C(=O)N(C)[C@@H](c2ccc(NC3Cc4ccccc4C3(C)C)cc2)C(F)(F)F)C1 (single isomer, unassigned) [Example 74] |  |  | 0.018 | 0.18 |  | 0.32
4 | CN(C(=O)c1cnco1)[C@@H](c1ccc(NC2Cc3ccccc3C2(C)C)cc1)C(F)(F)F (single isomer, unassigned) [Example 4] |  |  | 0.034 | 0.069 | 0.14 | 
5 | CN(C(=O)C1CNC1)C(c1ccc(NC2Cc3ccccc3C2(C)C)nc1)C(F)(F)F (single isomer, unassigned) [Example 87, N-(1-(6-((1,1-Dimethyl-2,3-dihydro-1H-inden-2-yl)amino)pyridin-3-yl)-2,2,2-trifluoroethyl)-N-methylazetidine-3-carboxamide] |  | 1.13 | 0.47 |  |  | 1.22
6 | CN(C(=O)CCN1CCCC1=O)[C@@H](c1ccc(NC2Cc3ccccc3C2(C)C)cc1)C(F)(F)F (single isomer, unassigned) [Example 48] |  |  | 0.017 | 1.16 |  | 0.14
7 | CN(C(=O)C1CCS(=O)(=O)CC1)[C@@H](c1ccc(NC2Cc3ccccc3C2(C)C)cc1)C(F)(F)F (single isomer, unassigned) [Example 2] |  |  | 0.05 | 0.62 | 0.14 | 
8 | CN(C(=O)c1cc[nH]c(=O)c1)C(c1ccc(NC2Cc3ccccc3C2(C)C)cn1)C(F)(F)F (single isomer, unassigned) [Example 98, N-(1-(5-((1,1-Dimethyl-2,3-dihydro-1H-inden-2-yl)amino)pyridin-2-yl)-2,2,2-trifluoroethyl)-N-methyl-2-oxo-1,2-dihydropyridine-4-carboxamide] |  |  | 0.59 | 0.88 |  | 0.21
9 | CC(=O)N1CC(C)(C(=O)N(C)[C@@H](c2ccc(NC3Cc4ccccc4C3(C)C)cc2)C(F)(F)F)C1 (single isomer, unassigned) [Example 42] |  |  | 0.035 | 1.6 |  | 0.16
10 | CN(C(=O)C1CCS(=O)(=O)CC1)[C@@H](c1ccc(NC2Cc3ccc(Cl)cc3C2(C)C)cc1)C(F)(F)F (single isomer, unassigned) [Example 150] |  | 0.1 | 0.066 |  |  | 0.15
11 | CN(C(=O)N1CCOCC1)[C@@H](c1ccc(N[C@@H]2Cc3ccccc3C2(C)C)cc1)C(F)(F)F (single isomer, unassigned) [Example 13] |  | 1.93 | 0.4 |  |  | 0.4
12 | CN(C(=O)c1cc[nH]c(=O)c1)[C@@H](c1ccc(NC2Cc3ccccc3C2(C)C)cc1)C(F)(F)F (single isomer, unassigned) [Example 20] |  | 0.51 | 0.24 |  |  | 0.21
13 | CN(C(=O)C1CNC1)C(c1ccc(NC2Cc3ccccc3C2(C)C)cn1)C(F)(F)F (single isomer, unassigned) [Example 85, N-(1-(5-((1,1-Dimethyl-2,3-dihydro-1H-inden-2-yl)amino)pyridin-2-yl)-2,2,2-trifluoroethyl)-N-methylazetidine-3-carboxamide] |  |  | 0.62 | 1.94 |  | 0.61
14 | CN(C(=O)N1CCS(=O)(=O)CC1)[C@@H](c1ccc(NC2Cc3ccccc3C2(C)C)cc1)C(F)(F)F (single isomer, unassigned) [Example 15] |  |  | 0.42 | 3.1 |  | 0.29
15 | CC(=O)NCC(=O)N(C)[C@@H](c1ccc(NC2Cc3ccccc3C2(C)C)cc1)C(F)(F)F (single isomer, unassigned) [Example 40] |  |  | 0.077 | 1.35 |  | 0.23
16 | CC(=O)N1CC(C(=O)N(C)[C@@H](c2ccc(NC3Cc4ccccc4C3(C)C)cc2)C(F)(F)F)C1 (single isomer, unassigned) [Example 6] |  |  | 0.016 | 0.32 |  | 0.15
17 | CC(=O)N1CC(F)(C(=O)N(C)[C@@H](c2ccc(NC3Cc4ccccc4C3(C)C)cc2)C(F)(F)F)C1 (single isomer, unassigned) [Example 44] |  |  | 0.021 | 0.77 |  | 0.18
18 | COCC(=O)N(C)[C@@H](c1ccc(NC2Cc3ccccc3C2(C)C)cc1)C(F)(F)F (single isomer, unassigned) [Example 29] |  |  | 0.014 | 0.69 |  | 0.16
19 | CN(C(=O)C1CCOCC1)[C@@H](c1ccc(NC2Cc3ccccc3C2(C)C)cc1)C(F)(F)F (single isomer, unassigned) [Example 19] |  |  | 0.03 | 0.11 |  | 0.17
20 | CN(C(=O)C1CN(S(C)(=O)=O)C1)[C@@H](c1ccc(NC2Cc3ccccc3C2(C)C)cc1)C(F)(F)F (single isomer, unassigned) [Example 69] |  |  | 0.079 | 0.92 |  | 0.28

Next, values leading:

Row | IC50 (FL hMALT1 enzyme [1]) [µM] | IC50 ([2]; Homo sapiens, Jurkat, 48 h) [µM] | IC50 (FL hMALT1 enzyme [3]) [µM] | IC50 ([2]; 48 hours) [µM] | IC50 [4] [µM] | IC50 [5] [µM] | SMILES
21 | 0.088 | 0.47 |  |  |  |  | CC(=O)NC12CC(C(=O)N(C)[C@@H](c3ccc(N[C@H]4Cc5ccccc5C4(C)C)cn3)C(F)(F)F)(C1)C2 [Example 179, 3-Acetamido-N—((S)-1-(5-(((S)-1,1-dimethyl-2,3-dihydro-1H-inden-2-yl)amino)pyridin-2-yl)-2,2,2-trifluoroethyl)-N-methylbicyclo[1.1.1]pentane-1-carboxamide]
22 |  |  | 0.036 | 0.5 |  | 0.22 | CN1CC(C(=O)N(C)[C@@H](c2ccc(NC3Cc4ccccc4C3(C)C)cc2)C(F)(F)F)C1 (single isomer, unassigned) [Example 76]
23 |  |  | 0.11 | 0.32 |  | 0.22 | CN(C(=O)N1CCS(=O)(=O)CC1)[C@@H](c1ccc(NC2Cc3ccccc3C2(C)C)cc1)C(F)(F)F (single isomer, unassigned) [Example 14]
24 |  | 0.15 | 0.039 |  |  | 0.2 | CC1c2ccccc2CC1Nc1ccc(C(N(C)C(=O)C2CCS(=O)(=O)CC2)C(F)(F)F)cc1 (mixture of isomers) [Example 8, N-Methyl-N—((S)-2,2,2-trifluoro-1-(4-(((1,2-cis)-1-methyl-2,3-dihydro-1H-inden-2-yl)amino)phenyl)ethyl)tetrahydro-2H-thiopyran-4-carboxamide 1,1-dioxide]
25 |  |  | 0.027 | 3.76 |  | 0.29 | CN(C(=O)CCO)[C@@H](c1ccc(NC2Cc3ccccc3C2(C)C)cc1)C(F)(F)F (single isomer, unassigned) [Example 35]
26 |  |  | 0.066 | 0.44 |  | 0.25 | CN(C(=O)CN1CCCC1=O)[C@@H](c1ccc(NC2Cc3ccccc3C2(C)C)cc1)C(F)(F)F (single isomer, unassigned) [Example 46]
27 |  | 4.31 | 0.73 |  |  | 0.61 | CN([C@@H](c1ccc(NC2Cc3ccccc3C2(C)C)cc1)C(F)(F)F)S(=O)(=O)C1CC1 (single isomer, unassigned) [Example 79]
28 |  |  | 0.2 | 2.61 |  | 0.29 | COCC(=O)N(C)[C@@H](c1ccc(NC2Cc3ccccc3C2(C)C)cc1)C(F)(F)F (single isomer, unassigned) [Example 28]
29 |  |  | 0.045 | 2.24 |  | 0.19 | CNS(=O)(=O)CCCC(=O)N(C)[C@@H](c1ccc(NC2Cc3ccccc3C2(C)C)cc1)C(F)(F)F (single isomer, unassigned) [Example 65]
30 |  |  | 0.42 | 0.36 |  | 0.26 | CN(C(=O)C1CCS(=O)(=O)CC1)[C@@H](c1ccc(NC2Cc3cc(Cl)ccc3C2(C)C)cc1)C(F)(F)F (single isomer, unassigned) [Example 152]
